Measured values reported in ChEMBL document CHEMBL4130359, “Indazole-based ligands for estrogen-related receptor α as potential anti-diabetic agents” (Eur J Med Chem, 2017).

How the values were obtained:
Rattus norvegicus [1] = assay: Decrease in fed plasma insulin level in Zucker rat sub-chronic fa/fa prediabetic model assessed as change in plasma insulin level at 10 mg/kg, po qd for 4 days measured on day 5 relative to control; format: functional; design: scale not given: the % may be the effect or the level left
Rattus norvegicus [2] = assay: Decrease in fed plasma triglyceride level in Zucker rat sub-chronic fa/fa prediabetic model assessed as change in plasma triglyceride level at 10 mg/kg, po qd for 4 days measured on day 5 relative to control; format: functional; design: scale not given: the % may be the effect or the level left
[3] = molecular target: T1, Steroid hormone receptor ERR1 (Homo sapiens, UniProt P11474); assay: Antagonist activity at His6-tagged ERRalpha LBD (unknown origin) assessed as inhibition of GST-tagged SRC-2 co-activator peptide recruitment after 18 hrs by TR-FRET assay
T1 sequence (P11474 whole entry): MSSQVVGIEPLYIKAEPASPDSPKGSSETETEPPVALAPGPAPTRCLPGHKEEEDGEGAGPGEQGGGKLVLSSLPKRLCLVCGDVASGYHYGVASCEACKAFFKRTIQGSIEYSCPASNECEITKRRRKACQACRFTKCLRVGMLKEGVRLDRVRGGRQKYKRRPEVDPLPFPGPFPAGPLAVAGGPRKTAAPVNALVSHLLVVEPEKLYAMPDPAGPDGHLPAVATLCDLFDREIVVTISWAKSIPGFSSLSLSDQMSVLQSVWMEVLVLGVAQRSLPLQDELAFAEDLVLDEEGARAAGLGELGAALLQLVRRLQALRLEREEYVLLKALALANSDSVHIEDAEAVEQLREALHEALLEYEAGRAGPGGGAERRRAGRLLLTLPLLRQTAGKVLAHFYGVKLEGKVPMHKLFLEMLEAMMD

[4] = Drug uptake in Sprague-Dawley rat plasma at 10 mg/kg, po via gavage by LC-MS analysis; format: ADME, organism-based; details: in vivo
[5] = molecular target: Voltage-gated inwardly rectifying potassium channel KCNH2 (Homo sapiens, UniProt Q12809); assay: Displacement of [3H]astemizole from human ERG; details: for inhibition (INH): human
Rattus norvegicus [6] = assay: Toxicity in Zucker rat sub-chronic fa/fa prediabetic model assessed as increase in body weight at 10 mg/kg, po qd during 10 days study; format: organism-based; details: in vivo, 240 h
Rattus norvegicus [7] = assay: Antidiabetic activity in Zucker rat sub-chronic fa/fa prediabetic model assessed as decrease in plasma glucose AUC (0 to 120 mins) at 10 mg/kg, po qd during 10 days study by OGTT relative to control; format: functional; design: scale not given: the % may be the effect or the level left
Rattus norvegicus [8] = assay: Decrease in fed plasma glucose level in Zucker rat sub-chronic fa/fa prediabetic model at 10 mg/kg, po qd for 4 days measured on day 5 relative to control; format: functional; design: scale not given: the % may be the effect or the level left
Rattus norvegicus [9] = assay: Toxicity in Zucker rat sub-chronic fa/fa prediabetic model assessed as effect on liver enzymes at 10 mg/kg, po qd during 10 days study; format: organism-based; details: in vivo, 240 h
Rattus norvegicus [10] = assay: Toxicity in Zucker rat sub-chronic fa/fa prediabetic model assessed as increase in food consumption at 10 mg/kg, po qd during 10 days study; format: organism-based; details: in vivo, 240 h
Cytochrome P450 2C19 = Cytochrome P450 2C19 (Homo sapiens, UniProt P33261); assay: Inhibition of CYP2C19 (unknown origin) in microsomes; format: ADME
Rattus norvegicus [11] = assay: Decrease in fed plasma free fatty acid level in Zucker rat sub-chronic fa/fa prediabetic model at 10 mg/kg, po qd for 4 days measured on day 5 relative to control; format: functional; design: scale not given: the % may be the effect or the level left
Rattus norvegicus [12] = assay: Toxicity in Zucker rat sub-chronic fa/fa prediabetic model assessed as increase in body weight at 10 mg/kg, po qd for 4 days; format: organism-based; details: in vivo, 96 h
Cytochrome P450 2C9 = Cytochrome P450 2C9 (Homo sapiens, UniProt P11712); assay: Inhibition of CYP2C9 (unknown origin) in microsomes; format: ADME
Cytochrome P450 3A4 = Cytochrome P450 3A4 (Homo sapiens, UniProt P08684); assay: Inhibition of CYP3A4 (unknown origin) in microsomes; format: ADME
[13] = molecular target: Steroid hormone receptor ERR2 (Homo sapiens, UniProt O95718); assay: Antagonist activity at recombinant GST-tagged human ERRbeta LBD assessed as inhibition of fluorescein-labeled coactivator peptide recruitment preincubated with enzyme followed by coactivator addition by LanthaScreen TR-FRET assay
Steroid hormone receptor ERR2, sequence (O95718 whole entry, the tested form may be a part): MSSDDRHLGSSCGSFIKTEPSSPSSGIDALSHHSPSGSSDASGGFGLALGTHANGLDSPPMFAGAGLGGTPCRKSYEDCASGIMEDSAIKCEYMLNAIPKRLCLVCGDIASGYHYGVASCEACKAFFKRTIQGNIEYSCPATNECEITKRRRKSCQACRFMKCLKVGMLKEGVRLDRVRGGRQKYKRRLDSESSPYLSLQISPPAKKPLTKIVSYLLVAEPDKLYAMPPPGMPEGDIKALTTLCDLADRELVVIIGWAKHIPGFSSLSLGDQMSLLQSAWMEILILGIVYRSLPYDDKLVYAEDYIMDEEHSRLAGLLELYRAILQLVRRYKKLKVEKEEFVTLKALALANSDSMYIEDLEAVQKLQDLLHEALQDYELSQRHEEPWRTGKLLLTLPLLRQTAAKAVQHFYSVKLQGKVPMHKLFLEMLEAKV

Cytochrome P450 3A4, sequence (P08684 whole entry, the tested form may be a part): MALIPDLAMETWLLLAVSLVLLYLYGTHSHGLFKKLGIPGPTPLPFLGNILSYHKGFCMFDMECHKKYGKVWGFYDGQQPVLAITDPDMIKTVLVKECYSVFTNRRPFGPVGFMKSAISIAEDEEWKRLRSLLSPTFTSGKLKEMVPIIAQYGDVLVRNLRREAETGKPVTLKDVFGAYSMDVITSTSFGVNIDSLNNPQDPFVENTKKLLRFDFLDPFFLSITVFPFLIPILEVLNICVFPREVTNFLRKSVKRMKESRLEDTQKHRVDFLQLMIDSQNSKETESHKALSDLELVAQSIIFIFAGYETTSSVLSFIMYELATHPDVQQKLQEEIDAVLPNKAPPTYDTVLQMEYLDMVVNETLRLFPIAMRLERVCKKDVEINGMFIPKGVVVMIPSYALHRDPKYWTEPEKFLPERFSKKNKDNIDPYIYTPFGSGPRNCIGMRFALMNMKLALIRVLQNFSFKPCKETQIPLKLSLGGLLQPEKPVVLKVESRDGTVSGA
Voltage-gated inwardly rectifying potassium channel KCNH2, sequence (Q12809 whole entry): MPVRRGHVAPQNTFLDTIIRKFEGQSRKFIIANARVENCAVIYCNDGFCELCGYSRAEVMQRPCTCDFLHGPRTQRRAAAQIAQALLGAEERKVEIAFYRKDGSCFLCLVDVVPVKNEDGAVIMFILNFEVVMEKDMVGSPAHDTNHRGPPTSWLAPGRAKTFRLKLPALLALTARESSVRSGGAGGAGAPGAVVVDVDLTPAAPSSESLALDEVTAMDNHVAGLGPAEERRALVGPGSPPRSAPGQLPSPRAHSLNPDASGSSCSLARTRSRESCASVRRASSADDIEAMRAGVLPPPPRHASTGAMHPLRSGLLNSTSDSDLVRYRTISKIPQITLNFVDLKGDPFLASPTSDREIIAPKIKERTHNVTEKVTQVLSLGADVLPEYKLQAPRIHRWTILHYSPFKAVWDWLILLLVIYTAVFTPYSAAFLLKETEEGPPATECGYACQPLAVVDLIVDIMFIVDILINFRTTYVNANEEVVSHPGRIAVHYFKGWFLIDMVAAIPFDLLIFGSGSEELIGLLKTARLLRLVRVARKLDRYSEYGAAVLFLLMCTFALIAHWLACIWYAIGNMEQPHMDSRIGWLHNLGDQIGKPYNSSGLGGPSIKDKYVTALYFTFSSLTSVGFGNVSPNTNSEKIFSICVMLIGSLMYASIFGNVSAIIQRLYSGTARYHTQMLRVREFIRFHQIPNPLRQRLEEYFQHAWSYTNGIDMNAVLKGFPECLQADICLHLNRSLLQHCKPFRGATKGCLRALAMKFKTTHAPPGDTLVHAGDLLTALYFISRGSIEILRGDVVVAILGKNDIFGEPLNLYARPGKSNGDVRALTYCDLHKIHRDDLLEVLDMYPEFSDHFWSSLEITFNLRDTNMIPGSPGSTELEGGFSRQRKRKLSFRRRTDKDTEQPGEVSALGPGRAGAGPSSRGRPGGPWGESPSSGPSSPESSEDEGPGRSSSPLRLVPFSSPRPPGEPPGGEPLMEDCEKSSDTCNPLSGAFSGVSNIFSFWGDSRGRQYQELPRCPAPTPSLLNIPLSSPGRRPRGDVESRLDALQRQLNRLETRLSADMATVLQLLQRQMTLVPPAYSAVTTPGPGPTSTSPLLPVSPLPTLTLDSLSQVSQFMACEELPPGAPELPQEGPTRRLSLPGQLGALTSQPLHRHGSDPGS
Cytochrome P450 2C9, sequence (P11712 whole entry): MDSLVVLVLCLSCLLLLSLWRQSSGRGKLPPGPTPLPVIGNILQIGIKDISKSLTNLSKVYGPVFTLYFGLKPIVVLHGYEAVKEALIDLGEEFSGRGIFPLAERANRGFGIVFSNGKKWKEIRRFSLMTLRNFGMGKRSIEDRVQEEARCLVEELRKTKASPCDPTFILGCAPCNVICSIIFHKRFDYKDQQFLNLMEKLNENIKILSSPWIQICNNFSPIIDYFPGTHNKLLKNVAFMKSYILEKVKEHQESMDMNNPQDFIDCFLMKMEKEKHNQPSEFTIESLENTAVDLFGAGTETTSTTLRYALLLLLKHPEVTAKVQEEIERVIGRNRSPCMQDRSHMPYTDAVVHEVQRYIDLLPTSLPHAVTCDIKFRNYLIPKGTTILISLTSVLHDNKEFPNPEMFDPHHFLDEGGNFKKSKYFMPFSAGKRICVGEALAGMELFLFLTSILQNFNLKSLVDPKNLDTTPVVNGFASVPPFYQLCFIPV
Cytochrome P450 2C19, sequence (P33261 whole entry): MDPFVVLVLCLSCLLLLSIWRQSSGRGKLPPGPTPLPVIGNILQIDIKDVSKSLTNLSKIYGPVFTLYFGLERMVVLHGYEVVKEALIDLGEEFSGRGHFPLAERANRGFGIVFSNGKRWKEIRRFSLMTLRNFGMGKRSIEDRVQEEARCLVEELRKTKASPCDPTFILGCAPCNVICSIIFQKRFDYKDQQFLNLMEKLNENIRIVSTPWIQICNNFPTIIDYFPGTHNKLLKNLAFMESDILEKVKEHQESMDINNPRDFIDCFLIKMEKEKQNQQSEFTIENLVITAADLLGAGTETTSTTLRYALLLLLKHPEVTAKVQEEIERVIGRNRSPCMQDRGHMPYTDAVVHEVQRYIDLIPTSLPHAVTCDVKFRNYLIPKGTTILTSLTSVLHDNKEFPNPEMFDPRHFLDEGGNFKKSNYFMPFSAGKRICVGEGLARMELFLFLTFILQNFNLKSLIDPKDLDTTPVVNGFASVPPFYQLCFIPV

Compound	Activity (Rattus norvegicus [1]) [%]	Activity (Rattus norvegicus [2]) [%]	IC50 [3] [nM]	also measured
CC(=O)NS(=O)(=O)CN1C(=O)S/C(=C\c2ccc3c(cnn3Cc3ccc(Cl)cc3C(F)(F)F)c2)C1=O	-58	-37	8	
O=C1S/C(=C\c2ccc3c(cnn3Cc3ccc(Cl)cc3C(F)(F)F)c2)C(=O)N1CCN1CCCC1	-49	-30	17	Cp [4]: < 100 ng/mL; inhibition (INH) [5]: Active
O=C1S/C(=C\c2ccc3c(cnn3Cc3ccc(C(F)(F)F)cc3C(F)(F)F)c2)C(=O)N1CCN1CCCC1			580	
Cc1nn(Cc2ccc(Cl)cc2C(F)(F)F)c2ccc(/C=C3\SC(=O)N(CC(=O)NS(=O)(=O)N4CCCC4)C3=O)cc12	-10	-23	54	Drug uptake [4]: Active
CN1CC[C@H](N2C(=O)S/C(=C\c3ccc4c(cnn4Cc4ccc(Cl)cc4C(F)(F)F)c3)C2=O)[C@@H](F)C1	-52	-51	22	Activity (Rattus norvegicus [6]): Toxic; Activity (Rattus norvegicus [7]): -37%; Activity (Rattus norvegicus [8]): -27%; Activity (Rattus norvegicus [9]): Toxic; Activity (Rattus norvegicus [10]): Toxic
COc1ccc(Cn2ncc3cc(/C=C4\SC(=O)N(CCN5CCCC5)C4=O)ccc32)c(C(F)(F)F)c1			46	
CN(C)S(=O)(=O)NC(=O)CN1C(=O)S/C(=C\c2ccc3c(cnn3Cc3ccc(Cl)cc3C(F)(F)F)c2)C1=O	-29	-46	23	
O=C(O)CN1C(=O)S/C(=C\c2ccc3c(cnn3Cc3ccc(Cl)cc3C(F)(F)F)c2)C1=O	-50	-14	9	
O=C1S/C(=C\c2ccc3c(cnn3Cc3ccc(Cl)cc3C(F)(F)F)c2)C(=O)N1Cc1nnn[nH]1	-44	-51	13	
CN1CC[C@H](N2C(=O)S/C(=C\c3ccc4c(cnn4Cc4ccc(Cl)cc4C(F)(F)F)c3)C2=O)[C@H](F)C1 (relative stereo)	-73	-57	45	inhibition (INH) (Cytochrome P450 2C19): Not Active; Activity (Rattus norvegicus [11]): -35%; inhibition (INH) [5]: Not Active; Activity (Rattus norvegicus [12]): Non-Toxic; inhibition (INH) (Cytochrome P450 2C9): Not Active; Activity (Rattus norvegicus [8]): -43%; inhibition (INH) (Cytochrome P450 3A4): Not Active
N[C@@H](CO)CN1C(=O)S/C(=C\c2ccc3c(cnn3Cc3ccc(Cl)cc3C(F)(F)F)c2)C1=O	-33	-45	23	Cp [4]: < 100 ng/mL; inhibition (INH) [5]: Active
CN1CCC(N2C(=O)S/C(=C\c3ccc4c(cnn4Cc4ccc(Cl)cc4C(F)(F)F)c3)C2=O)CC1			19	inhibition (INH) (Cytochrome P450 3A4): Active
CN1CC[C@@H](N2C(=O)S/C(=C\c3ccc4c(cnn4Cc4ccc(Cl)cc4C(F)(F)F)c3)C2=O)[C@H](O)C1 (relative stereo)			23	inhibition (INH) [5]: Active
COc1ccc(Cn2ncc3cc(/C=C4\SC(=O)N(CC(=O)O)C4=O)ccc32)c(C(F)(F)F)c1	-9	21	9	
O=C1S/C(=C\c2ccc3c(cnn3Cc3ccc(Cl)cc3C(F)(F)F)c2)C(=O)N1C[C@H]1COCCN1	-52	-61	15	Cp [4]: < 100 ng/mL; inhibition (INH) [5]: Active
COc1ccc(Cn2ncc3cc(/C=C4\SC(=O)N(CCN5CCOCC5)C4=O)ccc32)c(C(F)(F)F)c1	-21	-19	8	

Compound	Activity (Rattus norvegicus [1]) [%]	Activity (Rattus norvegicus [2]) [%]	IC50 [3] [nM]	also measured
NS(=O)(=O)NC(=O)CN1C(=O)S/C(=C\c2ccc3c(cnn3Cc3ccc(Cl)cc3C(F)(F)F)c2)C1=O	-51	-14	19	
O=C1S/C(=C\c2ccc3c(cnn3Cc3ccc(Cl)cc3C(F)(F)F)c2)C(=O)N1CCN1CCOCC1			43	
O=C(CN1C(=O)S/C(=C\c2ccc3c(cnn3Cc3ccc(Cl)cc3C(F)(F)F)c2)C1=O)NS(=O)(=O)N1CCCC1	-47	1	25	Drug uptake [4]: Active
O=C1S/C(=C\c2ccc3c(cnn3Cc3ccc(Cl)cc3C(F)(F)F)c2)C(=O)N1[C@@H]1CCNC[C@H]1F (relative stereo)			34	IC50 [5]: 21000 nM
O=C1S/C(=C\c2ccc3c(cnn3Cc3ccc(Cl)cc3C(F)(F)F)c2)C(=O)N1[C@@H]1CCNC[C@H]1O (relative stereo)			25	inhibition (INH) [5]: Active
COc1ccc(Cn2ncc3cc(/C=C4\SC(=O)N(C5CCC(C(=O)O)CC5)C4=O)ccc32)c(C(F)(F)F)c1 (configuration not stated)	-11	32		
O=C1S/C(=C\c2ccc3c(cnn3Cc3ccc(Cl)cc3C(F)(F)F)c2)C(=O)N1C1CCNCC1			16	inhibition (INH) (Cytochrome P450 2C19): Active; inhibition (INH) (Cytochrome P450 2C9): Active; inhibition (INH) (Cytochrome P450 3A4): Active
CN1CCC[C@H]1CN1C(=O)S/C(=C\c2ccc3c(cnn3Cc3ccc(Cl)cc3C(F)(F)F)c2)C1=O	-59	-37	5	Cp [4]: < 100 ng/mL
C[C@H](N)CN1C(=O)S/C(=C\c2ccc3c(cnn3Cc3ccc(Cl)cc3C(F)(F)F)c2)C1=O	-60	-55	24	Cp [4]: < 100 ng/mL
O=C1S/C(=C\c2ccc3c(cnn3Cc3ccc(Cl)cc3C(F)(F)F)c2)C(=O)N1C1CCN(CCO)CC1	-77	-40	15	inhibition (INH) [5]: Active
O=C(O)C1CCC(N2C(=O)S/C(=C\c3ccc4c(cnn4Cc4ccc(Cl)cc4C(F)(F)F)c3)C2=O)CC1 (configuration not stated)	-30	-19	12	
CCC(=C(c1ccc(O)cc1)c1ccc(OCCN(C)C)cc1)c1ccccc1				IC50 [13]: 886 nM
O=C(O)CN1C(=O)S/C(=C\c2ccc3c(cnn3Cc3ccc(C(F)(F)F)cc3C(F)(F)F)c2)C1=O			26	
CS(=O)(=O)NC(=O)CN1C(=O)S/C(=C\c2ccc3c(cnn3Cc3ccc(Cl)cc3C(F)(F)F)c2)C1=O	-14	13	18	
Cc1nn(Cc2ccc(Cl)cc2C(F)(F)F)c2ccc(/C=C3\SC(=O)N(CC(=O)O)C3=O)cc12	-18	-4	28	
